One assay deals with BT-20. Briefly: Anticancer activity against human BT-20 cells assessed as cell growth inhibition by MTT assay. Type of assay: functional, cell-based. (Formazan colour is commonly taken as a measure of viable cells.)
The target in assay [1] is T1, Insulin-like growth factor 1 receptor (Homo sapiens, UniProt P08069). Kind of assay: Inhibition of human IGF1R expressed in MDA-MB-468 cells. Type of assay: cell-based.
Assay [2] addresses T2, Aurora kinase B (Homo sapiens, UniProt Q96GD4). Briefly: Inhibition of human Aurora B kinase expressed in MDA-MB-468 cells. Type of assay: cell-based.
Assay [3] addresses T2, Aurora kinase B. Kind of assay: Inhibition of human Aurora B kinase expressed in MDA-MB-231 cells. Type of assay: cell-based.
The target in assay [4] is T1, Insulin-like growth factor 1 receptor. Briefly: Inhibition of human IGF1R expressed in SUM149 cells. Type of assay: cell-based, SUM149PT.
In assay [5] the target is T2, Aurora kinase B. Briefly: Inhibition of human Aurora B kinase expressed in SUM149 cells. Type of assay: cell-based, SUM149PT.
The target of a further assay is Aurora kinase A (Homo sapiens, UniProt O14965). Kind of assay: Inhibition of human Aurora A kinase expressed in MDA-MB-468 cells. Type of assay: cell-based.
Chain of Aurora kinase A (O14965 whole entry): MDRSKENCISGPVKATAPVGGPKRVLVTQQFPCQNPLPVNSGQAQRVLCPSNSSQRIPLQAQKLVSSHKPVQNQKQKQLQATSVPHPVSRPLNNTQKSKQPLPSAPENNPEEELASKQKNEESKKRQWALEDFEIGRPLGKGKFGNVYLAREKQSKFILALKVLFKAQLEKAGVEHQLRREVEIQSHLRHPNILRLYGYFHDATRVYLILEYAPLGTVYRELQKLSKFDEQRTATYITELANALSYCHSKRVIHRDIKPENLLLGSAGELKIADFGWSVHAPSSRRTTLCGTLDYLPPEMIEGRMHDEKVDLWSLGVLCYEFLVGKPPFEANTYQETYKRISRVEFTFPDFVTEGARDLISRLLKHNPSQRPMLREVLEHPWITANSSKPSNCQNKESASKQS

A word on the IC50: it is the point on the concentration scale where inhibition reaches its midpoint.

T2 sequence (Q96GD4 whole entry): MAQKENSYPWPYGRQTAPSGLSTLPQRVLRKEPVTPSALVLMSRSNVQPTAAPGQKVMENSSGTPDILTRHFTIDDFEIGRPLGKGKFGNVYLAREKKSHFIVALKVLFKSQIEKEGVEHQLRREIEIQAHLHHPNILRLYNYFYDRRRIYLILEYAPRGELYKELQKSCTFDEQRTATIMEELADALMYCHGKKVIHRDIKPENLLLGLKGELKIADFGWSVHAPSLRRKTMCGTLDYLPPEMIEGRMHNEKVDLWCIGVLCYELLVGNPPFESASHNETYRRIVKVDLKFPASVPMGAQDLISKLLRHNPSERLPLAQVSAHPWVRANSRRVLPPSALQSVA
T1 sequence (P08069 31-736 limits assumed): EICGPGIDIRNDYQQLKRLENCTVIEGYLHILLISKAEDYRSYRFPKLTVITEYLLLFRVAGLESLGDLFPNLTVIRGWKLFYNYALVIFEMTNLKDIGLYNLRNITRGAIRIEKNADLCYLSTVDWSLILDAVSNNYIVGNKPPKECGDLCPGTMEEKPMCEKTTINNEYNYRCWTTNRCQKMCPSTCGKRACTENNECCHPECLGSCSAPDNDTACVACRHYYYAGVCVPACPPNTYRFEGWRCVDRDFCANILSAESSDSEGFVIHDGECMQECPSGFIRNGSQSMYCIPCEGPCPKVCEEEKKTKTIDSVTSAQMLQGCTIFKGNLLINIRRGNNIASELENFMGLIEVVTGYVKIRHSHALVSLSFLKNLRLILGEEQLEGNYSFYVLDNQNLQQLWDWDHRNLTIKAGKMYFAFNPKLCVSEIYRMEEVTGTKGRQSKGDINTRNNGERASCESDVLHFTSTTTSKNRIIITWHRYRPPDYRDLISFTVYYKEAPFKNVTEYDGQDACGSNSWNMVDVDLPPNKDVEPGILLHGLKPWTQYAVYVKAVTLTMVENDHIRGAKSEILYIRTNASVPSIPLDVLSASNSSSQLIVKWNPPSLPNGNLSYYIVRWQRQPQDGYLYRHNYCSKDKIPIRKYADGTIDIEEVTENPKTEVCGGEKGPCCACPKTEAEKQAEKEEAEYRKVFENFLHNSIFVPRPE
T1 sequence (P08069 741-1367 limits assumed): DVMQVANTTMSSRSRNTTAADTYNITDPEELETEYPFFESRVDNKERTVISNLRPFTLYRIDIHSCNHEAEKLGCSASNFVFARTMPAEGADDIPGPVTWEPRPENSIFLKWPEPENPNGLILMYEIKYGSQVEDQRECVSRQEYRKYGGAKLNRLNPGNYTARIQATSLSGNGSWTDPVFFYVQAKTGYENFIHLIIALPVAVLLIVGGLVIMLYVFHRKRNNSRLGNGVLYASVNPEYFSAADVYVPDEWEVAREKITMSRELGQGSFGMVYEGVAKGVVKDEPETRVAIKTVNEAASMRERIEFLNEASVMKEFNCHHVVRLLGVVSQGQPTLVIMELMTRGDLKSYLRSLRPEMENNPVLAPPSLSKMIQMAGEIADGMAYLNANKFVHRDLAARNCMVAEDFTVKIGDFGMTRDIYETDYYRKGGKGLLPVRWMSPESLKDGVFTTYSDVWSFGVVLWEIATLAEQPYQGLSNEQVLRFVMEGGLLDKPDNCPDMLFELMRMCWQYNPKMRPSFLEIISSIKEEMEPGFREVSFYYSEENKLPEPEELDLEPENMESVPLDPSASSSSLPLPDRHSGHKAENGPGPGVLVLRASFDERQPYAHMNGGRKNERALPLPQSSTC

For `CN(c1ccccc1CNc1nc(Nc2ccc3c(c2)CC(=O)N3)ncc1C(F)(F)F)S(C)(=O)=O`, the IC50 with BT-20 came to 6.2 µM.
For `Cc1ccsc1C(=O)Nc1cc(CN2CCN(C(=O)CO)CC2)ccc1/C=C/c1n[nH]c2ccccc12` [KW-2450], the 50% inhibitory concentration (IC50) in assay [1] was under 0.002 µM; against Aurora kinase B [2], 0.478 µM; at Aurora kinase B [3] it was 0.066 µM; in assay [4], under 0.002 µM; against Aurora kinase B [5], 0.272 µM; against Aurora kinase A, 0.215 µM.

(Values after ChEMBL document CHEMBL5226297, “Small-Molecule Drug Discovery in Triple Negative Breast Cancer: Current Situation and Future Directions” (J Med Chem, 2021).)
